# Assays:
# Assay in all cases: Test D controlled growth environment herbicide test, pre- and postemergence
# Type in all cases: in vivo
# [1] = system: barley, spring (spring barley, Hordeum vulgare)
# Outline: (§1)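 Pre-emergence: seeds sown in silt loam soil were sprayed with compound in a non-phytotoxic solvent mix containing surfactant. Post-emergence: plants at 2 to 18 cm (1- to 4-leaf stage) in peat moss/vermiculite medium got the same formulation. Visual 0–100 rating versus controls after 14 to 21 d.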
# [2] = system: radish, wild (wild radish, Raphanus raphanistrum)
# Outline: as §1
# [3] = system: buckwheat, wild (wild buckwheat, Polygonum convolvulus)
# Outline: as §1
# [4] = system: pigweed (Amaranthus retroflexus)
# Outline: as §1
# [5] = system: oilseed rape (Brassica napus)
# Outline: as §1
# [6] = system: field poppy (Papaver rhoeas)
# Outline: as §1
# [7] = system: chamomile (scentless chamomile, Matricaria inodora)
# Outline: as §1
# [8] = system: barley, winter (winter barley, Hordeum vulgare)
# Outline: as §1
# [9] = system: oat, wild (wild oat, Avena fatua)
# Outline: as §1
# [10] = system: bluegrass (annual bluegrass, Poa annua)
# Outline: as §1
# [11] = system: galium (catchweed bedstraw, Galium aparine)
# Outline: as §1
# [12] = system: speedwell (bird's-eye speedwell, Veronica persica)
# Outline: as §1
# [13] = system: mustard, wild (wild mustard, Sinapis arvensis)
# Outline: as §1
# [14] = Postemergence, 31 g ai/ha, scale 0 to 100 (0 no effect, 100 complete control)
# [15] = Postemergence, 125 g ai/ha, visual rating on scale 0 (no effect) to 100 (complete control), 14 to 21 d
# [16] = Postemergence, 250 g ai/ha, scale 0 to 100 (0 no effect, 100 complete control)
# [17] = Preemergence, 62 g ai/ha, scale 0 to 100 (0 no effect, 100 complete control)
# [18] = Preemergence, 125 g ai/ha, scale 0 to 100 (0 no effect, 100 complete control)
# [19] = Preemergence, 250 g ai/ha, scale 0 to 100 (0 no effect, 100 complete control)
# [20] = postemergence, 62 g ai/ha, scale 0 to 100, 0 no effect, 100 complete control
compound,measurement,setting,value
Cc1ccc2ccccc2c1-c1c(O)c(C)nn(C)c1=O [Compound 59],"Barley, Spring plant response rating",[1]; [14],25
same,"Plant response rating, Barley, Spring",[1]; [15],40
same,"Plant response rating, Barley, Spring",[1]; [16],60
same,"Plant response rating (scale of 0 to 100), Barley, Spring","[1]; Preemergence, 31 g ai/ha",5
same,"Plant response rating, Barley, Spring",[1]; [17],25
same,"Plant response rating, Barley, Spring",[1]; [18],40
same,"Plant response rating, Barley, Spring",[1]; [19],60
same,"Plant response rating, Barley, Spring",[1]; [20],30
same,"Radish, Wild plant response rating",[2]; [14],95
same,"Plant response rating, Radish, Wild",[2]; [15],100
same,"Plant response rating, Radish, Wild",[2]; [16],100
same,"Plant response rating, Radish, Wild",[2]; [17],85
same,"Plant response rating, Radish, Wild",[2]; [18],95
same,"Plant response rating, Radish, Wild",[2]; [19],100
same,"Plant response rating, Radish, Wild",[2]; [20],95
same,"Buckwheat, Wild plant response rating",[3]; [14],65
same,"Plant response rating, Buckwheat, Wild",[3]; [15],100
same,"Plant response rating, Buckwheat, Wild",[3]; [16],100
same,"Plant response rating (scale of 0 to 100), Buckwheat, Wild","[3]; Preemergence, 31 g ai/ha",20
same,"Plant response rating, Buckwheat, Wild",[3]; [17],65
same,"Plant response rating, Buckwheat, Wild",[3]; [18],100
same,"Plant response rating, Buckwheat, Wild",[3]; [19],95
same,"Plant response rating, Buckwheat, Wild",[3]; [20],100
same,Pigweed plant response rating,[4]; [14],80
same,"Plant response rating, Pigweed",[4]; [15],100
same,"Plant response rating, Pigweed",[4]; [16],100
same,"Plant response rating (scale of 0 to 100), Pigweed","[4]; Preemergence, 31 g ai/ha",95
same,"Plant response rating, Pigweed",[4]; [17],100
same,"Plant response rating, Pigweed",[4]; [18],100
same,"Plant response rating, Pigweed",[4]; [19],100
same,"Plant response rating, Pigweed",[4]; [20],85
same,Oilseed Rape plant response rating,[5]; [14],60
same,"Plant response rating, Oilseed Rape",[5]; [15],85
same,"Plant response rating, Oilseed Rape",[5]; [16],90
same,"Plant response rating (scale of 0 to 100), Oilseed Rape","[5]; Preemergence, 31 g ai/ha",20
same,"Plant response rating, Oilseed Rape",[5]; [17],30
same,"Plant response rating, Oilseed Rape",[5]; [18],50
same,"Plant response rating, Oilseed Rape",[5]; [19],80
same,"Plant response rating, Oilseed Rape",[5]; [20],70
same,Field Poppy plant response rating,[6]; [14],70
same,"Plant response rating, Field Poppy",[6]; [15],95
same,"Plant response rating, Field Poppy",[6]; [16],100
same,"Plant response rating (scale of 0 to 100), Field Poppy","[6]; Preemergence, 31 g ai/ha",100
same,"Plant response rating, Field Poppy",[6]; [17],100
same,"Plant response rating, Field Poppy",[6]; [18],100
same,"Plant response rating, Field Poppy",[6]; [19],100
same,"Plant response rating, Field Poppy",[6]; [20],75
same,Chamomile plant response rating,[7]; [14],80
same,"Plant response rating, Chamomile",[7]; [15],85
same,"Plant response rating, Chamomile",[7]; [16],100
same,"Plant response rating (scale of 0 to 100), Chamomile","[7]; Preemergence, 31 g ai/ha",100
same,"Plant response rating, Chamomile",[7]; [17],95
same,"Plant response rating, Chamomile",[7]; [18],100
same,"Plant response rating, Chamomile",[7]; [19],100
same,"Plant response rating, Chamomile",[7]; [20],80
same,"Barley, Winter plant response rating",[8]; [14],20
same,"Plant response rating, Barley, Winter",[8]; [15],45
same,"Plant response rating, Barley, Winter",[8]; [16],60
same,"Plant response rating (scale of 0 to 100), Barley, Winter","[8]; Preemergence, 31 g ai/ha",15
same,"Plant response rating, Barley, Winter",[8]; [17],25
same,"Plant response rating, Barley, Winter",[8]; [18],40
same,"Plant response rating, Barley, Winter",[8]; [19],45
same,"Plant response rating, Barley, Winter",[8]; [20],30
same,"Oat, Wild plant response rating",[9]; [14],80
same,"Plant response rating, Oat, Wild",[9]; [15],95
same,"Plant response rating, Oat, Wild",[9]; [16],98
same,"Plant response rating (scale of 0 to 100), Oat, Wild","[9]; Preemergence, 31 g ai/ha",90
same,"Plant response rating, Oat, Wild",[9]; [17],90
same,"Plant response rating, Oat, Wild",[9]; [18],95
same,"Plant response rating, Oat, Wild",[9]; [19],100
same,"Plant response rating, Oat, Wild",[9]; [20],90
same,Bluegrass plant response rating,[10]; [14],25
same,"Plant response rating, Bluegrass",[10]; [15],55
same,"Plant response rating, Bluegrass",[10]; [16],75
same,"Plant response rating (scale of 0 to 100), Bluegrass","[10]; Preemergence, 31 g ai/ha",30
same,"Plant response rating, Bluegrass",[10]; [17],50
same,"Plant response rating, Bluegrass",[10]; [18],75
same,"Plant response rating, Bluegrass",[10]; [19],80
same,"Plant response rating, Bluegrass",[10]; [20],40
same,Galium plant response rating,[11]; [14],100
same,"Plant response rating, Galium",[11]; [15],100
same,"Plant response rating, Galium",[11]; [16],100
same,"Plant response rating (scale of 0 to 100), Galium","[11]; Preemergence, 31 g ai/ha",95
same,"Plant response rating, Galium",[11]; [17],95
same,"Plant response rating, Galium",[11]; [18],100
same,"Plant response rating, Galium",[11]; [19],100
same,"Plant response rating, Galium",[11]; [20],100
same,Speedwell plant response rating,[12]; [14],65
same,"Plant response rating, Speedwell",[12]; [15],100
same,"Plant response rating, Speedwell",[12]; [16],100
same,"Plant response rating (scale of 0 to 100), Speedwell","[12]; Preemergence, 31 g ai/ha",100
same,"Plant response rating, Speedwell",[12]; [17],100
same,"Plant response rating, Speedwell",[12]; [18],100
same,"Plant response rating, Speedwell",[12]; [19],100
same,"Plant response rating, Speedwell",[12]; [20],100
same,"Mustard, Wild plant response rating",[13]; [14],90
same,"Plant response rating, Mustard, Wild",[13]; [15],100
same,"Plant response rating, Mustard, Wild",[13]; [16],100
same,"Plant response rating (scale of 0 to 100), Mustard, Wild","[13]; Preemergence, 31 g ai/ha",95
same,"Plant response rating, Mustard, Wild",[13]; [17],95
same,"Plant response rating, Mustard, Wild",[13]; [18],100
same,"Plant response rating, Mustard, Wild",[13]; [19],100
same,"Plant response rating, Mustard, Wild",[13]; [20],100
